Assay results taken from US12527773B2, “Flavi-block: a pan-flavivirus inhibitor” (Baden-Württemberg Stiftung GmbH, priority 2020, dated 2026).
Read-outs that look alike come from different tables or passages of the source.

Tests used:
[1] = test system: DENV4; assay: Plaque assay of released virus, DENV4-infected Vero cells; format: cell-based; details: Dengue virus
Experimental: Vero cells were infected with DENV1-4 at an MOI of 1 for 2 h (post infection, p.i., (A)), after which virus was removed, and fresh maintenance medium containing 2% FCS together with the indicated concentration of C10 added. For co-treat condition (c.t., (B)), Vero cells were infected with DENV1-4 at an MOI of 1 in the presence of C10 for 2 h, followed by removal of the virus/C10 inoculums, and addition of fresh 2% fetal calf serum maintenance medium. […] Results represent the mean ±SD for duplicate wells from a single assay, representative of 2 independent experiments (cf. Tables 2A and 2B, infra, for pooled data).
(§1) Vero and BHK-21 cells were maintained in DMEM media supplemented with 10% heat-inactivated FBS at 37° C. in a humidified incubator supplemented with 5% CO2; A549 cells were maintained in F-12K medium supplemented with 10% heat-inactivated Fetal Bovine Serum (FBS), 2 mM L-glutamine, 50 U/I penicillin, 0.05 mg/l streptomycin. […] Viral titer was subsequently determined by plaque assay (see below).
(§2) Vero cells were seeded into 24-well plates at a density of 2×10^5 cells/well and grown overnight in culture medium at 37° C. with 5% CO2 prior to infection with RSV, KUNV, ZIKV as indicated. […] The stain was removed by rinsing the cells with tap water, and the viral plaques were counted visually. […]

[2] = test system: KUNV (MRM61C strain); assay: Plaque assay of released virus, KUNV-infected Vero cells; format: cell-based, Kunjin virus; details: West Nile virus
Experimental: Vero cells were infected with KUNV at an MOI of 1 for 2 h (post infection), after which virus was removed, and fresh maintenance medium containing 2% FCS together with the indicated concentration of C10 added. For co-treat condition, Vero cells were infected with KUNV at an MOI of 1 in the presence of C10 for 2 h, followed by removal of the virus/C10 inoculums, and addition of fresh 2% fetal calf serum maintenance medium.
as §1, with “streptomycin. DENV-1-4 strains, cell culture conditions and Gen-Bank accession numbers, as well as details of RSV strains and culture are known in the art.” for “streptomycin.”
as §2, with “indicated. BHK-21 cells were used for DENV1-4.” for “indicated.”

CCN1/C(=C\C=C\c2sc3cc(NC(C)=O)ccc3[n+]2CC)Sc2cc(NC(C)=O)ccc21.[I-] [C10, 6-acetamido-2-((1E,3E)-3-(6-acetamido-3-ethylbenzo[d]thiazol-2(3H)-ylidene)prop-1-en-1-yl)-3-ethylbenzo[d]thiazol-3-ium iodide]
EC50 ([1]; read-out: EC50 from plaque assays, DENV4, c.t.): 50 nM
EC50 ([1]; read-out: EC50 from plaque assays, DENV4, p.i.): 790 nM
EC50 ([2]; read-out: EC50 from plaque assays, KUNV, c.t.): 50 nM
EC50 ([2]; read-out: EC50 from plaque assays, KUNV, p.i.): 420 nM
